Assay: method code SF-AS, from Dearden, C.; O'Hara, H. (1978). Partition coefficients of some alkyl derivatives of 4-acetamidophenol. Eur J Med Chem, 13(5)415-419.

SMILES | logP
CC(=O)Nc1cc(C)c(O)c(C)c1C | 0.82
CC(=O)Nc1ccc(O)c(C(C)C)c1 | 1.71
CC(=O)Nc1ccc(O)c(C(C)(C)C)c1 | 2.36
CC(=O)Nc1c(C)cc(O)cc1C | 0.31
CC(=O)Nc1cc(C)c(O)cc1C | 0.6
CC(=O)Nc1c(C)c(C)c(O)c(C)c1C | 0.95
CC(=O)Nc1cc(C)c(O)c(C)c1 | 1.11

Second part, the compound after the results:

logP | SMILES
0.57 | CC(=O)Nc1ccc(O)c(C)c1C
1.31 | CCc1cc(NC(C)=O)ccc1O
0.17 | CC(=O)Nc1ccc(O)cc1C
0.75 | CC(=O)Nc1c(C)cc(O)c(C)c1C
1.87 | CCc1cc(NC(C)=O)cc(CC)c1O
0.79 | CC(=O)Nc1ccc(O)c(C)c1
3.18 | CC(=O)Nc1cc(C(C)(C)C)c(O)c(C(C)(C)C)c1

From the SangsterLogP compilation
